Test results: patent publication US6492378B1, “Substituted isoquinoline derivatives and their use as anticonvulsivants” (SmithKline Beecham p.l.c., priority 1998, dated 2002)

System: maximal electroshock seizure (MEST) threshold in rodents
Assay: MEST test (maximal electroshock seizure threshold)
Assay type: in vivo
Settings: 2 mg/kg p.o. at 2 h post-dose
Procedure: 2. MEST Test The maximal electroshock seizure (MEST) threshold test in rodents is particularly sensitive for detecting potential anticonvulsant properties^1. In this model, anticonvulsant agents elevate the threshold to electrically-induced seizures whilst proconvulsants lower the seizure threshold. Method for Mouse Model Mice (naive male, Charles River, U.K. CD-1 strain, 25-30 g) are randomly assigned to groups of 10-20 and dosed orally or intraperitoneally at a dose volume of 10 ml/kg with various doses of compound (0.3-300 mg/kg) or vehicle. Mice are then subjected at 30 or 60 min post dose to a single electroshock (0.1 sec, 50 Hz, sine wave form) administered via corneal electrodes. The mean current and standard error required to induce a tonic seizure in 50% (CC50) of the mice in a particular treatment group is determined by the ‘up and down’ method of Dixon and Mood (1948)^2. Statistical comparisons between vehicle- and drug-treated groups are made using the method of Litchfield and Wilcoxon (1949)^3. In control animals the CC50 is usually 14-18 mA. […] If a tonic convulsion does occur, then the current is decreased, and so on until all the animals in the group have been tested. Studies are carried out using a Hugo Sachs Electronik Constant Current Shock Generator with totally variable control of shock level from 0 to 300 mA and steps of 2 mA are usually used. Method for Rat Model The threshold for maximal (tonic hindlimb extension) electroshock seizures in male rats (Sprague Dawley, 80-150 g, 6 weeks old) was determined by a Hugo Sachs Electronik stimulator which delivered a constant current (0.3 sec duration; from 1-300 mA in steps of 5-20 mA). The procedure is similar to that outlined above for mouse and full details are as published by Upton et al,.^4 The percentage increase or decrease in CC50 for each group compared to the control is calculated. Drugs are suspended in 1% methyl cellulose.

| SMILES | % increases in seizure threshold |
| --- | --- |
| COc1ccc(C(=O)Nc2ccc3c(c2)CN(C)CC3(C)C)cc1Br [Example E15, N-(2,4,4-Trimethyl-1,2,3,4-tetrahydroisoquinolin-7-yl)-3-bromo-4-methoxybenzamide] | 263% |
| COc1ccc(C(=O)Nc2ccc3c(c2)CN(C)CC3(C)C)cc1I [Example E17, N-(2,4,4-Trimethyl-1,2,3,4-tetrahydroisoquinolin-7-yl)-3-iodo-4-methoxybenzamide] | 314% |
| COc1cc(OC(C)C)c(Cl)cc1C(=O)Nc1cccc2c1C(C)(C)CN(C)C2 [Example E29, N-(2,4,4-Trimethyl-1,2,3,4-tetrahydroisoquinolin-5-yl)-5-chloro-2-methoxy-4-iso-propyloxybenzamide] | 310% |
| COc1cc(C(C)C)c(C(F)(F)F)cc1C(=O)Nc1cccc2c1C(C)(C)CN(C)C2 [Example E34, N-(2,4,4-Trimethyl-1,2,3,4-tetrahydroisoquinolin-5-yl)-2-methoxy-4-iso-propyl-5-trifluoromethylbenzamide] | 280% |
| CCc1c(NC(=O)c2ccc(OC(C)C)c(C(C)=O)c2)ccc2c1CN(C)CC2(C)C [Example E48, N-(8-Ethyl-2,4,4-trimethyl-1,2,3,4-tetrahydroisoquinolin-7-yl)-3-acetyl-4-iso-propyloxybenzamide] | 240% |
| COc1ccc(C(=O)Nc2ccc3c(c2)CN(C)C(C)(C)C3)cc1C(F)(F)F [Example E69, N-(2,3,3-Trimethyl-1,2,3,4-tetrahydroisoquinolin-7-yl)4-methoxy-3-trifluoromethylbenzamide] | 340% |
